Experimental data: EP0960886B1, “Peptide T and related peptides in the treatment of inflammation, including multiple sclerosis” (priority 1992, dated 1993)
Several values for one entry are separate records, joined by “and”; a condition that tells them apart may be missing. Equal entries are not always repeated. Entries after “also recorded” stand apart in the source; their conditions may differ.

Columns and labels:
[1] = Pharmacokinetics of Peptide T in vivo; details: following administration in vivo
[2] = tested on: human monocyte chemotaxis; details: cited from earlier work
PBMC [3] = assay: Mixed lymphocyte reaction (Example 13); format: cell-based, human
IL-1 = assay: Serum IL-1 by RIA in patients with HIV disease; format: in vivo, human; details: one line per patient with HIV disease
Text: (§1) However, neopterin levels were elevated prior to Peptide T administration whereas serum IL-1 levels were normal.

HIV = details: 100 nM Peptide T; cited from earlier work
TNFα = assay: Production of TNFα by Con A stimulated PBMC, radioimmune assay (Example 12); format: cell-based, human
Protocol: Production of Tumour Necrosis Factor α (TNFα): 5x10^6 PBMC/ml were incubated in the presence of Con A (6.25µg/ml) for 48 hours in a humid atmosphere, 5% CO2, 37°C. Peptide T (10^-9M) was added at t=0 and 24 hours. At the end of incubation, SEPHADEX™ G25 (Pharmacia) was added (10mg/ml) and incubated for 10 minutes to remove mitogen. PBMC and SEPHADEX were pelleted by centrifugation and the supernatant tested for levels of TNFα using a TNFα radioimmune assay kit from Amersham. Samples were analysed in duplicate.

allogeneic PBMC = assay: Two way MLR (Example 9); format: cell-based, human; details: without Peptide T 1365 ± 335
Protocol: A two way MLR was performed using 10^5 allogeneic PBMC (cpm of A = 142 ± 86, B = 148 ± 84) cocultured in 200 µl of media as described in Table III.
Peptide T given on the first day of an MLR will inhibit allogeneic induced proliferation of PBMC (Table IV).

Neopterin = assay: Serum neopterin by RIA in patients with HIV disease; format: in vivo, human; details: one line per patient with HIV disease
Text: as §1

PBMC [4] = assay: Mitogen-induced lymphoproliferation (Example 12); format: cell-based, human
Protocol: Concanavalin A (Con A), pokeweed mitogen, (PWM) and phytohaemagglutin-P (PHA-P) were obtained from Sigma Chemical Co. (St. Louis, MO, USA). Peptide T was synthesised by Carlbiotech Ltd (Copenhagen, Denmark) and supplied as the chloride salt at 8.5 mg/ml in 0.9% benzyl alcohol as a preservative and was stored at 4°C. Peptide T was diluted to working solutions in culture medium (RPMI). Dilute solutions of Peptide T were prepared fresh from stock Peptide T for each experiment. ^3H-thymidine (5 Ci/mmol) was obtained from Amersham.
Isolation of PBMC: Whole blood from healthy, adult volunteers was drawn into heparin and peripheral blood mononuclear cells (PBMC) isolated by density gradient centrifugation on HISTOPAQUE™ (Sigma Chemical Co). PBMC were removed from the interface, washed three times in RPMI containing gentamycin (100µg/ml) and resuspended to 1x10^6 PBMC/ml in RPMI containing 10% foetal bovine serum and gentamycin. 10^5 PBMC were cultured in the presence of 100µl of mitogen suspension in 96 well plates. The final concentration of mitogen was: PWM 25µg/ml; PHA 12.5µg/ml and Con A 6.25µg/ml. 10µl of Peptide T working solution (or RPMI as negative control) was added and cell cultures incubated for a total of 5 days in a humid atmosphere, 5% CO2, 37°C. Cultures were then pulsed with ^3H-thymidine (in RPMI) 18-24 hours prior to harvesting. The amount of incorporated ^3H-thymidine was determined using a BECKMAN™ LS8000 liquid scintillation counter and proliferation expressed as either counts per minute (cpm) or as a proliferation index (PI). PI=(cpm of (PBMC+mitogen))/(cpm of (PBMC+media)) [formula]
All experiments were performed in triplicate. Results reported are characteristic of replicated experiments.
Statistical Analyses: Data were analysed by a two sample ANOVA test using 95% confidence limits such that a value of p≤0.05 was considered a significant difference.

[5] = tested on: Human umbilical vein endothelial cells; assay: TNFα-induced tissue factor expression on endothelial cells, ELISA (Example 17); format: cell-based; details: TNFα 3 µg/ml for 4 hours; increasing concentrations of Peptide T
Protocol: Methodology Human umbilical vein endothelial cells were cultured essentially by the method of Bevilacqua et al. Proc. Natl. Acad. Sci. USA 83 4533-4537 (1986). Cell cultures were treated with TNFα at 3 µg/ml for 4 hours at 37° in the presence or absence of Peptide T. Tissue factor expression was measured by an ELISA, following absorbence at 450nm.

C[C@@H](N)C(=O)N[C@@H](CO)C(=O)N[C@H](C(=O)N[C@H](C(=O)N[C@H](C(=O)N[C@@H](CC(N)=O)C(=O)N[C@@H](Cc1ccc(O)cc1)C(=O)N[C@H](C(N)=O)[C@@H](C)O)[C@@H](C)O)[C@@H](C)O)[C@@H](C)O [Peptide T, D-Ala-Ser-Thr-Thr-Thr-Asn-Tyr-Thr-NH2]
peak plasma concentrations [1]: 55 nM | agonist activity on human monocyte chemotaxis [2]: potent agonists | growth of lymphocytes in a mixed lymphocyte reaction (PBMC [3]): did not affect | [IL-1] (IL-1; post-Peptide T): 3.8 ± 0.12 fmol/100µl and 4.2 ± 0.07 fmol/100µl and 4.6 ± 0.11 fmol/100µl and 4.7 ± 0.05 fmol/100µl and 4.2 ± 0.02 fmol/100µl and 4.2 ± 0.26 fmol/100µl and 4.33 ± 0.003 fmol/100µl and 4.6 ± 0.02 fmol/100µl | [IL-1] (IL-1; pre-Peptide T (baseline)): 3.5 ± 0.14 fmol/100µl and 5.23 ± 0.17 fmol/100µl and 4.1 ± 0.01 fmol/100µl and 4.1 ± 0.03 fmol/100µl and 3.7 ± 0.03 fmol/100µl and 4.2 ± 0.14 fmol/100µl and 3.9 ± 0.13 fmol/100µl and 4.35 ± 0.06 fmol/100µl | reduction of reverse transcriptase (HIV): ninefold reduction | TNFα (TNFα; PBMC+Con A (6.25µg/ml)+Peptide T 10^-9M, 48 hours, PBMC+Con A alone 69.0 ± 6.9): 47.0 ± 0.1 fmol/100ul | TNFα (TNFα; PBMC+RPMI+Peptide T, no Con A, 48 hours): <1 fmol/100ul | TNFα (TNFα; RPMI+Peptide T (no cells), Peptide T 10^-9M): <1 fmol/100ul | cpm ± SD (allogeneic PBMC; Peptide T 10^-0 mol/l): 764 ± 77 cpm | cpm ± SD (allogeneic PBMC; Peptide T 10^-5 mol/l): 649 ± 263 cpm | cpm ± SD (allogeneic PBMC; Peptide T 10^-7 mol/l): 534 ± 108 cpm | cpm ± SD (allogeneic PBMC; Peptide T 10^-11 mol/l): 681 ± 222 cpm | cpm ± SD (allogeneic PBMC; Peptide T 10^-13 mol/l): 235 ± 4 cpm | cpm ± SD (allogeneic PBMC; Peptide T 10^-15 mol/l): 371 ± 117 cpm | cpm ± SD (allogeneic PBMC; Peptide T 10^-17 mol/l): 672 ± 261 cpm | [Neopterin] (Neopterin; Pre-Peptide T (baseline)): 47.3 ± 0.8 nM and 27.8 ± 0.8 nM and 13.15 ± 2.85 nM and 52.0 ± 4.0 nM | [Neopterin] (Neopterin; post-Peptide T): 32.5 ± 3.5 nM and 19.75 ± 0.25 nM and 8.9 ± 0.6 nM and 16.85 ± 0.05 nM | concentration able to inhibit stimulated PBMC cultures (PBMC [4]; Con A stimulated, as little as): 0.001 pM | cytotoxicity for responding lymphocytes (PBMC [4]; Con A-induced proliferation measured daily): not cytotoxic | proliferation index ± standard deviation (PBMC [4]; Con A, Peptide T 1x10^-9 M added Day 1, no Peptide T 21.0 ± 5.7): 6.2 ± 0.5 | proliferation index ± standard deviation (PBMC [4]; Con A, Peptide T 1x10^-9 M added Day 2, no Peptide T 21.0 ± 5.7): 6.0 ± 1.1 | proliferation index ± standard deviation (PBMC [4]; Con A, Peptide T 1x10^-9 M added Day 3, no Peptide T 21.0 ± 5.7): 9.9 ± 0.1 | proliferation index ± standard deviation (PBMC [4]; Con A, Peptide T 1x10^-9 M added Day 4, no Peptide T 21.0 ± 5.7): 9.5 ± 1.6 | concentration able to inhibit stimulated PBMC cultures (PBMC [4]; PHA stimulated): 0.1 pM | proliferation index ± standard deviation (PBMC [4]; PHA, Peptide T 1x10^-9 M added Day 1, no Peptide T 197 ± 3): 148 ± 13 | proliferation index ± standard deviation (PBMC [4]; PHA, Peptide T 1x10^-9 M added Day 2, no Peptide T 197 ± 3): 101 ± 7 | proliferation index ± standard deviation (PBMC [4]; PHA, Peptide T 1x10^-9 M added Day 3, no Peptide T 197 ± 3): 148 ± 7 | proliferation index ± standard deviation (PBMC [4]; PHA, Peptide T 1x10^-9 M added Day 4, no Peptide T 197 ± 3): 131 ± 10 | concentration able to inhibit stimulated PBMC cultures (PBMC [4]; PWM stimulated, as little as): 0.001 pM | proliferation index ± standard deviation (PBMC [4]; PWM, Peptide T 1x10^-9 M added Day 1, no Peptide T 4.29 ± 0.25): 3.13 ± 0.21 | proliferation index ± standard deviation (PBMC [4]; PWM, Peptide T 1x10^-9 M added Day 2, no Peptide T 4.29 ± 0.25): 3.20 ± 0.20 | proliferation index ± standard deviation (PBMC [4]; PWM, Peptide T 1x10^-9 M added Day 3, no Peptide T 4.29 ± 0.25): 2.65 ± 0.17 | proliferation index ± standard deviation (PBMC [4]; PWM, Peptide T 1x10^-9 M added Day 4, no Peptide T 4.29 ± 0.25): 3.22 ± 0.28 | mitogen induced proliferation of PBMC after exposure and washing (PBMC [4]; exposure to Peptide T for 2 hours, cells washed before mitogen): inhibition of proliferation | Con A-induced lymphocyte proliferation measured daily (PBMC [4]; growth period day 2-4, Peptide T 10^-9M, compared with growth in absence of the drug): paralleled, but at a reduced rate | growth of PBMC in the absence of mitogen (PBMC [4]; no mitogen): negligible effects; also recorded: did not significantly affect | mitogen stimulation of PBMC after pre-incubation (PBMC [4]; pre-incubation with Peptide T for less than 30 minutes): no effect | tissue factor expression [5]: progressively reduce tissue factor expression
